Results on 9 compounds are retold here after US8912221B2, “Biaryl amide derivatives” (Hoffmann-La Roche Inc., priority 2010, dated 2014).

Experiment [1] has as its target T1, Bradykinin-1 receptor (Homo sapiens (Human), UniProt P46663). Put plainly: Receptor Binding Assay. Particulars: membranes from CHO-K1 cells overexpressing Bradykinin-1 receptor; 6 nM [3H]Kallidin (Des Arg10, Leu9); read-out: B1R Binding Ki. Here is the method:
Binding assays were done with membranes from CHO-K1 cells overexpressing Bradykinin-1 receptor.
For binding, Bradykinin-1 receptor antagonist compounds were added in various concentrations in 50 mM Tris pH 7.4, 5 mM MgCl2 together with 6 nM Kallidin (Des Arg^10, Leu^9), [3,4-Prolyl-3,4-^3H(N)] (PerkinElmer, 1.85-4.44 TBq/mmol) to 40 μg membrane protein containing approximately 1 fmol Bradykinin-1 receptor and incubated for 15 min at 27° C. To determine non-specific binding 10 μM Lys-(Des-Arg^9)-Bradykinin (Bachem) was added. Membranes were harvested through GF/B (glass fiber filter; PerkinElmer) plates, equilibrated with 0.5% polyethylenimine, air dried at 50° C. for 2 hr. Radioactivity was determined by counting in a topcounter (NXT Packard). Specific binding was defined as total binding minus nonspecific binding and typically represents about 90-95% of the total binding. Antagonist activity is expressed as Ki: inhibitor concentration required for 50% inhibition of specific binding corrected for the concentration of the radioligand.

Experiment [2] concerns the target T1, Bradykinin-1 receptor. Put plainly: Calcium Mobilization Assay. Particulars: GeneBLAzer Bradykinin (B1)-NFAT-bla CHO-K1 cells; antagonist activity, FLIPR; read-out: Ca mobilization IC50. The class given is cell-based. The procedure:
Calcium Mobilization Assay
GeneBLAzer® Bradykinin (B1)-NFAT-bla CHO-K1 cells (from Invitrogen) stably overexpressing the human bradykinin 1 receptor were cultured in DMEM (high glucose) supplemented with 10% dialysed FBS, 1% NEAA (non essential amino acids) 1% penicillin/streptomycin, 1% G418 and 0.1 mg/ml zeocin.
For the assay cells were grown overnight in 384-well black clear flat bottom polystyrene plates (Costar) at 37° C. at 5% CO2. After washing with DMEM, 20 mM Hepes, 2.5 mM probenecid, 0.1% BSA (DMEM assay buffer) cells were loaded with 4 μM Fluo-4 in the same DMEM assay buffer for 2 hours at 30° C. Excess dye was removed and cells were washed with DMEM assay buffer. 384-well compound plates were prepared with DMEM assay buffer/0.5% DMSO with or without various concentrations of test compounds. Usually compounds were tested for agonist and antagonist activity.
Test compounds were added to the assay plate and agonist activity was monitored as fluorescence for 80 seconds with a FLIPR (488 nm excitation; 510-570 nm emission; Molecular Devices). […] Increases in intracellular calcium are reported as maximum fluorescence after agonist exposure minus basal fluorescence before exposure. Antagonist activity is indicated as inhibitor concentration required for 50% inhibition of specific calcium increases.

T1 sequence (P46663 whole entry): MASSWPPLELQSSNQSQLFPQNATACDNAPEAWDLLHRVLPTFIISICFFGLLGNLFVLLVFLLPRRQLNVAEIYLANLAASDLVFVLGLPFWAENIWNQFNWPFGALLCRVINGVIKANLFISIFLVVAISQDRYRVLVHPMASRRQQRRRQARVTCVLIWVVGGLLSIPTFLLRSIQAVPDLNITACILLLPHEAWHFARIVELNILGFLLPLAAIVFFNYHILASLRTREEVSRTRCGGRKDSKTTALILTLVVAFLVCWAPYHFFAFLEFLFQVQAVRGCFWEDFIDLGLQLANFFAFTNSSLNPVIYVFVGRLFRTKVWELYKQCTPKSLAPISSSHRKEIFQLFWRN

As a reminder, the Ki is the dissociation constant of the complex between target and ligand, obtained from inhibition or displacement. A word on the IC50: it is the point on the concentration scale where inhibition reaches its midpoint. Regarding `Cc1nc(-c2c(F)cc(Cl)cc2-c2cnc([C@@H](C)NC(=O)C3(NC(=O)c4cccnc4)COC3)c(F)c2)no1` [Example 30, N-[3-((R)-1-{5-[5-Chloro-3-fluoro-2-(5-methyl-[1,2,4]oxadiazol-3-yl)-phenyl]-3-fluoro-pyridin-2-yl}-ethylcarbamoyl)-oxetan-3-yl]-nicotinamide], the Ki at Bradykinin-1 receptor [1] stood at 1.3 nM. Further, at Bradykinin-1 receptor [2], the IC50 came out at 0.2 nM.
The matching figures for `Cc1cc(C(=O)NC2(C(=O)N[C@H](C)c3ccc(-c4cc(Cl)cc(F)c4-c4nnn(C)n4)cc3F)COC2)on1` [Example 23, 3-Methyl-isoxazole-5-carboxylic acid (3-{(R)-1-[5′-chloro-3,3′-difluoro-2′-(2-methyl-2H-tetrazol-5-yl)-biphenyl-4-yl]-ethylcarbamoyl}-oxetan-3-yl)-amide]: 1 nM and 0.1 nM.
With `COc1ncc(C(=O)NC2(C(=O)N[C@H](C)c3ncc(-c4cc(Cl)cc(F)c4-c4noc(C)n4)cc3F)COC2)cn1` [Example 15, 2-Methoxy-pyrimidine-5-carboxylic acid [3-((R)-1-{5-[5-chloro-3-fluoro-2-(5-methyl-[1,2,4]oxadiazol-3-yl)-phenyl]-3-fluoro-pyridin-2-yl}-ethylcarbamoyl)-oxetan-3-yl]-amide], on Bradykinin-1 receptor [1], the Ki came out at 1.1 nM. Besides, the IC50 on Bradykinin-1 receptor [2] was determined as 0.1 nM.
For `C[C@@H](NC(=O)C1(NC(=O)c2ccno2)COC1)c1ncc(-c2cc(Cl)cc(Cl)c2OCC(F)F)cc1F` [Example 10, Isoxazole-5-carboxylic acid [3-((R)-1-{5-[3,5-dichloro-2-(2,2-difluoro-ethoxy)-phenyl]-3-fluoro-pyridin-2-yl}-ethylcarbamoyl)-oxetan-3-yl]-amide] the same measures were 4.7 nM and 3.3 nM.
Take `Cc1nc(-c2c(F)cc(Cl)cc2-c2cnc([C@@H](C)NC(=O)C3(NC(=O)c4nccn4C)COC3)c(F)c2)no1` [Example 26, 1-Methyl-1H-imidazole-2-carboxylic acid [3-((R)-1-{5-[5-chloro-3-fluoro-2-(5-methyl-[1,2,4]oxadiazol-3-yl)-phenyl]-3-fluoro-pyridin-2-yl}-ethylcarbamoyl)-oxetan-3-yl]-amide]: the Ki at Bradykinin-1 receptor [1] stood at 503 nM. Also, on Bradykinin-1 receptor [2], the IC50 is 490 nM.
For `Cc1nc(-c2c(F)cc(Cl)cc2-c2cnc([C@@H](C)NC(=O)C3(NC(=O)c4nnc(C)o4)COC3)c(F)c2)no1` [Example 19, 5-Methyl-[1,3,4]oxadiazole-2-carboxylic acid [3-((R)-1-{5-[5-chloro-3-fluoro-2-(5-methyl-[1,2,4]oxadiazol-3-yl)-phenyl]-3-fluoro-pyridin-2-yl}-ethylcarbamoyl)-oxetan-3-yl]-amide] the same measures were 5.1 nM and 1.2 nM.
Consider `COC(=O)c1c(Cl)cccc1-c1ccc([C@@H](C)NC(=O)C2(NC(=O)CC(F)(F)F)COC2)c(F)c1` [Example 8, 3-Chloro-3′-fluoro-4′-((R)-1-{[3-(3,3,3-trifluoro-propionylamino)-oxetane-3-carbonyl]-amino}-ethyl)-biphenyl-2-carboxylic acid methyl ester], for which, on Bradykinin-1 receptor [1], the Ki worked out at 5.3 nM. Moreover, on Bradykinin-1 receptor [2], the IC50 was 0.4 nM.
Turning to `Cc1nc(-c2c(F)cc(Cl)cc2-c2cnc([C@@H](C)NC(=O)C3(NC(=O)c4cc(F)cc(C(F)(F)F)c4)COC3)c(F)c2)no1` [Example 1, 3-(3-Fluoro-5-trifluoromethyl-benzoylamino)-oxetane-3-carboxylic acid ((R)-1-{5-[5-chloro-3-fluoro-2-(5-methyl-[1,2,4]oxadiazol-3-yl)-phenyl]-3-fluoro-pyridin-2-yl}-ethyl)-amide], at Bradykinin-1 receptor [1], the Ki stood at 2.6 nM. For the same compound, the IC50 on Bradykinin-1 receptor [2] worked out at 0.3 nM.
Consider `COc1ncc(C(=O)NC2(C(=O)N[C@H](C)c3ncc(-c4cc(Cl)cc(F)c4-c4nnn(C)n4)cc3F)COC2)cn1` [Example 36, 2-Methoxy-pyrimidine-5-carboxylic acid [3-((R)-1-{5-[5-chloro-3-fluoro-2-(2-methyl-2H-tetrazol-5-yl)-phenyl]-3-fluoro-pyridin-2-yl}-ethylcarbamoyl)-oxetan-3-yl]-amide], for which, on Bradykinin-1 receptor [1], the Ki is 1.2 nM. Further, the IC50 at Bradykinin-1 receptor [2] was determined as 0.2 nM.
